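Following 48 hours of exposure in 96-well plates, responses at five concentrations were used to interpolate endpoints linearly. TGI: total growth inhibition.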
Legend:
Assay in all cases: growth of human tumour cells (NCI), 48 h
[1] = system: NCI-H522 lung
[2] = system: HCC-2998 colon
[3] = system: K-562 leukemia
[4] = system: HOP-18 NSCLC
[5] = system: 786-0 renal
[6] = system: SK-OV-3 ovarian
[7] = system: TK-10 renal
[8] = system: OVCAR-5 ovarian
[9] = system: UACC-62 melanoma
[10] = system: HCT-15 colon
[11] = system: LXFL 529 NSCLC
[12] = system: DMS 114 small cell lung
[13] = system: HCT-116 colon
[14] = system: M19-MEL melanoma
[15] = system: HT29 colon
[16] = system: U251 CNS
[17] = system: NCI-H460 lung
[18] = system: M14 melanoma
[19] = system: HOP-62 NSCLC
[20] = system: SF-539 CNS
[21] = system: KM12 colon
[22] = system: SNB-19 CNS
[23] = system: SF-295 CNS
[24] = system: LOX IMVI melanoma
[25] = system: UO-31 renal
[26] = system: SK-MEL-5 melanoma
[27] = system: OVCAR-3 ovarian
[28] = system: MALME-3M melanoma
[29] = system: UACC-257 melanoma
[30] = system: ACHN renal
[31] = system: SK-MEL-28 melanoma
[32] = system: SNB-78 CNS
[33] = system: CAKI-1 renal
[34] = system: CCRF-CEM leukemia
[35] = system: SF-268 CNS
[36] = system: NCI-H226 lung
[37] = system: A549 NSCLC
[38] = system: SN12C renal
[39] = system: SK-MEL-2 melanoma
[40] = system: DLD-1 colon
[41] = system: IGROV1 ovarian
[42] = system: RPMI-8226 leukemia
[43] = system: MOLT-4 leukemia
[44] = system: SW-620 colon
[45] = system: OVCAR-4 ovarian
[46] = system: HL-60(TB) leukemia
[47] = system: EKVX NSCLC
[48] = system: NCI-H23 lung
[49] = system: HOP-92 NSCLC
[50] = system: RXF 393 renal
[51] = system: OVCAR-8 ovarian
[52] = system: KM20L2 colon
[53] = system: SR leukemia
[54] = system: COLO 205 colon
[55] = system: DMS 273 small cell lung
[56] = system: SNB-75 CNS
[57] = system: A498 renal

CC1=C(C(=O)CC(=O)C(=O)Nc2cccc(C)c2C)Sc2ccccc2N1
TGI [1]: > 100 µM | TGI [2]: > 100 µM | TGI [3]: > 100 µM | TGI [4]: > 100 µM | TGI [5]: > 100 µM | TGI [6]: > 100 µM | TGI [7]: > 100 µM | TGI [8]: > 100 µM | TGI [9]: > 100 µM | TGI [10]: > 100 µM | TGI [11]: > 100 µM | TGI [12]: > 100 µM | TGI [13]: > 100 µM | TGI [14]: > 100 µM | TGI [15]: > 100 µM | TGI [16]: > 100 µM | TGI [17]: > 100 µM | TGI [18]: > 100 µM | TGI [19]: > 100 µM | TGI [20]: > 100 µM | TGI [21]: > 100 µM | TGI [22]: > 100 µM | TGI [23]: > 100 µM | TGI [24]: > 100 µM | TGI [25]: > 100 µM | TGI [26]: > 100 µM | TGI [27]: > 100 µM | TGI [28]: > 100 µM | TGI [29]: > 100 µM | TGI [30]: > 100 µM | TGI [31]: > 100 µM | TGI [32]: > 100 µM | TGI [33]: > 100 µM | TGI [34]: > 100 µM | TGI [35]: > 100 µM | TGI [36]: > 100 µM | TGI [37]: > 100 µM | TGI [38]: > 100 µM | TGI [39]: > 100 µM | TGI [40]: > 100 µM | TGI [41]: > 100 µM | TGI [42]: > 100 µM | TGI [43]: > 100 µM | TGI [44]: > 100 µM | TGI [45]: > 100 µM | TGI [46]: > 100 µM | TGI [47]: > 100 µM | TGI [48]: > 100 µM | TGI [49]: > 100 µM | TGI [50]: > 100 µM | TGI [51]: > 100 µM

CNS(=O)(=O)NNS(=O)(=O)c1cccc([N+](=O)[O-])c1
TGI [1]: > 100 µM | TGI [52]: > 100 µM | TGI [2]: > 100 µM | TGI [3]: > 100 µM | TGI [5]: > 100 µM | TGI [7]: > 100 µM | TGI [53]: > 100 µM | TGI [9]: > 100 µM | TGI [10]: > 100 µM | TGI [11]: > 100 µM | TGI [12]: > 100 µM | TGI [13]: > 100 µM | TGI [14]: > 100 µM | TGI [15]: > 100 µM | TGI [16]: > 100 µM | TGI [17]: > 100 µM | TGI [18]: > 100 µM | TGI [19]: > 100 µM | TGI [54]: > 100 µM | TGI [20]: > 100 µM | TGI [21]: > 100 µM | TGI [22]: > 100 µM | TGI [23]: > 100 µM | TGI [24]: > 100 µM | TGI [25]: > 100 µM | TGI [26]: > 100 µM | TGI [27]: > 100 µM | TGI [28]: > 100 µM | TGI [29]: > 100 µM | TGI [30]: > 100 µM | TGI [33]: > 100 µM | TGI [34]: > 100 µM | TGI [37]: > 100 µM | TGI [38]: > 100 µM | TGI [39]: > 100 µM | TGI [40]: > 100 µM | TGI [41]: > 100 µM | TGI [42]: > 100 µM | TGI [43]: > 100 µM | TGI [55]: > 100 µM | TGI [44]: > 100 µM | TGI [45]: > 100 µM | TGI [47]: > 100 µM | TGI [48]: > 100 µM | TGI [56]: > 100 µM | TGI [50]: > 100 µM | TGI [51]: > 100 µM

C=CCCCCCCCC(O)C1C[C@H](O)C(CCCCC)O1 (stereo partly specified)
TGI [1]: 35.1 µM | TGI [2]: 33.4 µM | TGI [3]: 47.6 µM | TGI [4]: 32.1 µM | TGI [5]: 32.2 µM | TGI [6]: 43.2 µM | TGI [7]: 34.8 µM | TGI [9]: 29.6 µM | TGI [10]: 40 µM | TGI [11]: 29 µM | TGI [12]: 37 µM | TGI [13]: 34.5 µM | TGI [14]: 35.9 µM | TGI [15]: 35.6 µM | TGI [16]: 31.3 µM | TGI [17]: 37.2 µM | TGI [18]: 34.6 µM | TGI [54]: 34.5 µM | TGI [57]: 36.1 µM | TGI [20]: 30.7 µM | TGI [21]: 41.3 µM | TGI [23]: 33 µM | TGI [24]: 36.1 µM | TGI [25]: 31.9 µM | TGI [26]: 34.7 µM | TGI [27]: 32.7 µM | TGI [28]: 33.5 µM | TGI [30]: 36.6 µM | TGI [31]: 33.7 µM | TGI [32]: 45.1 µM | TGI [33]: 34.6 µM | TGI [34]: 41.6 µM | TGI [36]: 29.6 µM | TGI [37]: 37.5 µM | TGI [38]: 36 µM | TGI [40]: 31 µM | TGI [41]: 42.2 µM | TGI [42]: 43.9 µM | TGI [43]: 43.6 µM | TGI [55]: 32.8 µM | TGI [44]: 41.7 µM | TGI [46]: 37.4 µM | TGI [47]: 36.7 µM | TGI [48]: 36.8 µM | TGI [49]: 30.7 µM | TGI [56]: 29.7 µM | TGI [50]: 37.7 µM | TGI [51]: 40.2 µM

— PubChem BioAssay (NCI)
